Converted amounts (≈) assume the structure as drawn. Counter-ions that a name gives are not always drawn. Like-named read-outs stand apart in the source and are kept apart here.

One series deals with C57BL6 mice. The experiment in a line: Acute acetaminophen-induced hepatotoxicity in mice (plasma ALT and AST). As for the experimental part:
Hepatotoxicity was evaluated by measuring standard plasma enzymatic markers (Alanine transaminase (ALT) and Aspartate transaminase (AST)) of liver damage.

The next series is described as follows: physchem. Conditions: for solubility: water, Solubility in water at room temperature. As for the experimental part: To a stirred colorless solution of (S)-4-acetamidophenyl 2-(tert-butoxycarbonylamino)-4-(methylthio)butanoate (0.5 g, 1.3 mmol) in dioxane (10 mL) was added 40 mL of HCl in dioxane (4M).
The conditions of series [1]: cited from earlier work.

Broadly, the melting point is the temperature, or range, at which the solid turns liquid. The molecule `CC(=O)Nc1ccc(OC(=O)C(N)CSSCC(N)C(=O)O)cc1.Cl.Cl` (centres unmarked) yielded a melting point of 230 to 237 °C.
Same read-out and setting: under `CSCC[C@H](N)C(=O)Oc1ccc(NC(C)=O)cc1` (as salt: HCl) [Compound (II-A), (S)-4-acetamidophenyl 2-amino-4-(methylthio)butanoate] stands 225 to 228 °C; under `CC(=O)Nc1ccc(OC(=O)C(N)CSSCC(N)C(=O)Oc2ccc(NC(C)=O)cc2)cc1` (centres unmarked) (as salt: trifluoroacetate) [Example 4, bis(4-acetamidophenyl)3,3′-disulfanediylbis(2-aminopropanoate)di(trifluoroacetate)], greater than 300 °C.
In general, solubility refers to the concentration that dissolves in the medium under given conditions. Regarding `CC(=O)Nc1ccc(O)cc1` [Acetaminophen, N-(4-hydroxyphenyl)acetamide], in the series on C57BL6 mice (mouse, in vivo), the “Treated mice with elevated ALT levels” value was 83% and the “Treated mice with increased AST levels” value is listed as “all”. In the series “physchem”, the solubility was roughly 14.3 mg/mL (≈ 94.6 mM).
Regarding `CSCC[C@H](N)C(=O)Oc1ccc(NC(C)=O)cc1` [Compound (II-A), (S)-4-acetamidophenyl 2-amino-4-(methylthio)butanoate], in the series “physchem”, the solubility was 500 mg/mL (≈ 1770 mM).
As to `CC(=O)Nc1ccc(OC(=O)C(N)CSSCC(NC(C)=O)C(=O)O)cc1` (centres unmarked) [Compound II-D sodium salt, 2-acetamido-3-((3-(4-acetamidophenoxy)-2-amino-3-oxopropyl)disulfanyl)propanoic acid], the “Solubility in water at room temperature” value in “physchem” is reported as 52 mg/mL.
For `CC(=O)Nc1ccc(OC(=O)C(CSSCC(NC(C)=O)C(=O)O)NC(C)=O)cc1` (centres unmarked) [Example 2, 2-acetamido-3-((2-acetamido-3-(4-acetamidophenoxy)-3-oxopropyl)disulfanyl)propanoic acid], the melting point was in the range of 95 to 99 °C.
With `CC(=O)Nc1ccc(OC(=O)C(N)CSSCC(NC(C)=O)C(=O)O)cc1` (centres unmarked) [II-D, 2-acetamido-3-((3-(4-acetamidophenoxy)-2-amino-3-oxopropyl)disulfanyl)propanoic acid], the solubility in “physchem” was 47 mg/mL (≈ 113 mM).
In the case of `O=C1N[C@H](C(=O)O)CS1` [L-2-oxothiazolidine-4-carboxylate], the GSH tissue levels is listed as 6.1 μmol/g of tissue in series [1] (administered 30 minutes post-acetaminophen administration) and 5.3 μmol/g of tissue in series [1] (administered 120 minutes post-acetaminophen administration).
Consider `CSCC[C@H](N)C(=O)O` [l-methionine], for which the “AST and ALT increases in acetaminophen-treated animals” value in the series on C57BL6 mice (co-administration of equimolar doses of l-methionine and acetaminophen) is given as “significantly reduced”. In addition, in the series on C57BL6 mice (oral l-methionine alone (167 mg/kg)), the “Serum AST and ALT levels” value was “did not affect”.

(Values after US9951001B2 (Acorda Therapeutics, Inc., priority 2008, dated 2018).)
